Measurements as given in ChEMBL document CHEMBL3763039, “Development and Characterization of Potent Cyclic Acyldepsipeptide Analogues with Increased Antimicrobial Activity” (2016).
≈ marks a conversion by molar mass, not a printed value. Where a SMILES comes first, the peptide text is derived from it. Bridges are numbered along the chain shown (N, C = ends). [ ]: non-standard residue; d: D form. The star is where a group is joined. Phe(F5) = N[C@@H](Cc1c(F)c(F)c(F)c(F)c1F)C(=O)O; Phe(3,5-F2) = N[C@@H](Cc1cc(F)cc(F)c1)C(=O)O; Pip(4S-Me) = C[C@H]1CCN[C@H](C(=O)O)C1; Pro(4R-Me) = C[C@H]1CN[C@H](C(=O)O)C1; Tiq1c(1S) = O=C(O)[C@H]1NCCc2ccccc21; Bta = N[C@@H](Cc1csc2ccccc12)C(=O)O; Heptenoyl(2E) = CCCC/C=C/C(=O)*; Cha = N[C@@H](CC1CCCCC1)C(=O)O; aThr = C[C@H](O)[C@H](N)C(=O)O; Pip = O=C(O)[C@@H]1CCCCN1; Abu = CC[C@H](N)C(=O)O; Dap = NC[C@H](N)C(=O)O

How the values were obtained:
Assay type in all cases: functional
Streptococcus pneumoniae = experiment: Antibacterial activity against Streptococcus pneumoniae D39 incubated for 16 to 18 hrs by broth microdilution method
Neisseria meningitidis [1] = experiment: Antibacterial activity against Neisseria meningitidis H44/76 incubated for 16 to 18 hrs by broth microdilution method
Escherichia coli [2] = experiment: Antibacterial activity against Escherichia coli MC4100 expressing lptD-4213 incubated for 16 to 18 hrs by broth microdilution method
Pseudomonas aeruginosa = experiment: Antibacterial activity against Pseudomonas aeruginosa PAO1 incubated for 16 to 18 hrs by broth microdilution method
Staphylococcus aureus [3] = experiment: Antibacterial activity against Staphylococcus aureus subsp. aureus Newman clinical isolate incubated for 16 to 18 hrs by broth microdilution method
Bacillus subtilis = experiment: Antibacterial activity against Bacillus subtilis PY79 incubated for 16 to 18 hrs by broth microdilution method
Enterococcus faecalis = experiment: Antibacterial activity against vancomycin-resistant Enterococcus faecalis V583 incubated for 16 to 18 hrs by broth microdilution method
Staphylococcus aureus [4] = experiment: Antibacterial activity against methicillin-resistant Staphylococcus aureus 1784A incubated for 16 to 18 hrs by broth microdilution method
Escherichia coli [5] = experiment: Antibacterial activity against Escherichia coli MC4100 incubated for 16 to 18 hrs by broth microdilution method
Listeria innocua = experiment: Antibacterial activity against Listeria innocua incubated for 16 to 18 hrs by broth microdilution method
Neisseria gonorrhoeae = experiment: Antibacterial activity against chloramphenicol-resistant Neisseria gonorrhoeae N.279 incubated for 16 to 18 hrs by broth microdilution method
Staphylococcus aureus [6] = experiment: Antibacterial activity against Staphylococcus aureus ATCC 29213 incubated for 16 to 18 hrs by broth microdilution method
Neisseria meningitidis [7] = experiment: Antibacterial activity against clpP deficient Neisseria meningitidis H44/76 incubated for 16 to 18 hrs by broth microdilution method

Row | SMILES | MIC (Streptococcus pneumoniae) [µg/mL] | MIC (Neisseria meningitidis [1]) [µg/mL] | MIC (Escherichia coli [2]) [µg/mL] | MIC (Pseudomonas aeruginosa) [µg/mL] | MIC (Staphylococcus aureus [3]) [µg/mL] | MIC (Bacillus subtilis) [µg/mL] | MIC (Enterococcus faecalis) [µg/mL] | MIC (Staphylococcus aureus [4]) [µg/mL] | MIC (Escherichia coli [5]) [µg/mL] | MIC (Listeria innocua) [µg/mL] | MIC (Neisseria gonorrhoeae) [µg/mL] | MIC (Staphylococcus aureus [6]) [µg/mL] | MIC (Neisseria meningitidis [7]) [µg/mL]
1 | CCCC/C=C/C(=O)N[C@@H](Cc1csc2ccccc12)C(=O)N[C@H]1COC(=O)[C@@H]2C[C@@H](C)CN2C(=O)[C@H](CC)NC(=O)[C@@H]2CCCCN2C(=O)[C@@H]2CCCN2C1=O ({Heptenoyl(2E)}-[Bta]SP[Pip][Abu][Pro(4R-Me)]; ester 2-C) | 8 (≈ 9.94 µM) | 32 (≈ 39.8 µM) | > 128 | > 128 | 8 (≈ 9.94 µM) | 8 (≈ 9.94 µM) | 8 (≈ 9.94 µM) | > 128 | > 128 | 0.125 (≈ 0.155 µM) | > 128 | 8 (≈ 9.94 µM) | 
2 | CCCC/C=C/C(=O)N[C@@H](CC1CCCCC1)C(=O)N[C@H]1COC(=O)[C@@H]2C[C@@H](C)CN2C(=O)[C@H](CC)NC(=O)[C@@H]2CCCCN2C(=O)[C@@H]2CCCN2C1=O ({Heptenoyl(2E)}-[Cha]SP[Pip][Abu][Pro(4R-Me)]; ester 2-C) | 0.5 (≈ 0.662 µM) | 32 (≈ 42.4 µM) | > 128 | > 128 | 1 (≈ 1.32 µM) | 2 (≈ 2.65 µM) | 1 (≈ 1.32 µM) | 4 (≈ 5.3 µM) | > 128 | ≤ 0.0625 | 32 (≈ 42.4 µM) | 1 (≈ 1.32 µM) | 
3 | CCCC/C=C/C(=O)N[C@@H](Cc1cc(F)cc(F)c1)C(=O)N[C@H]1COC(=O)[C@@H]2C[C@@H](C)CN2C(=O)[C@H](CC)NC(=O)[C@@H]2CCCN2C(=O)[C@@H]2CCCN2C1=O ({Heptenoyl(2E)}-[Phe(3,5-F2)]SPP[Abu][Pro(4R-Me)]; ester 2-C) | 0.5 (≈ 0.649 µM) | 4 (≈ 5.19 µM) | > 128 | > 128 | 2 (≈ 2.59 µM) | 0.125 (≈ 0.162 µM) | 0.25 (≈ 0.324 µM) | 2 (≈ 2.59 µM) | > 128 | ≤ 0.0625 | 4 (≈ 5.19 µM) | 2 (≈ 2.59 µM) | 
4 | CCCC/C=C/C(=O)N[C@@H](Cc1cc(F)cc(F)c1)C(=O)N[C@H]1COC(=O)[C@@H]2C[C@@H](C)CN2C(=O)[C@H](C)NC(=O)[C@@H]2C[C@@H](C)CCN2C(=O)[C@@H]2CCCN2C1=O ({Heptenoyl(2E)}-[Phe(3,5-F2)]SP[Pip(4S-Me)]A[Pro(4R-Me)]; ester 2-C) | ≤ 0.0625 | 0.125 (≈ 0.159 µM) | > 128 | > 128 | 0.5 (≈ 0.637 µM) | ≤ 0.0625 | 0.0156 (≈ 0.0199 µM) | 4 (≈ 5.1 µM) | > 128 | ≤ 0.0625 | 0.0625 (≈ 0.0796 µM) | 0.0156 (≈ 0.0199 µM) | 
5 | CCCC/C=C/C(=O)N[C@@H](Cc1cc(F)cc(F)c1)C(=O)N[C@H]1COC(=O)[C@@H]2C[C@@H](C)CN2C(=O)[C@H](CC)NC(=O)[C@@H]2c3ccccc3CCN2C(=O)[C@@H]2CCCN2C1=O ({Heptenoyl(2E)}-[Phe(3,5-F2)]SP[Tiq1c(1S)][Abu][Pro(4R-Me)]; ester 2-C) | 0.5 (≈ 0.6 µM) | 8 (≈ 9.6 µM) | > 128 | > 128 | 8 (≈ 9.6 µM) | 2 (≈ 2.4 µM) | 0.25 (≈ 0.3 µM) | 4 (≈ 4.8 µM) | > 128 | 0.125 (≈ 0.15 µM) | 8 (≈ 9.6 µM) | 4 (≈ 4.8 µM) | 
6 | CCCC/C=C/C(=O)N[C@@H](Cc1cc(F)cc(F)c1)C(=O)N[C@H]1CNC(=O)[C@@H]2C[C@@H](C)CN2C(=O)[C@H](C)NC(=O)[C@@H]2CCCCN2C(=O)[C@@H]2CCCN2C1=O ({Heptenoyl(2E)}-[Phe(3,5-F2)][Dap]P[Pip]A[Pro(4R-Me)]; lactam 2-C) | 2 (≈ 2.6 µM) | 1 (≈ 1.3 µM) | > 128 | > 128 | 16 (≈ 20.8 µM) | 4 (≈ 5.2 µM) | 0.5 (≈ 0.649 µM) | 16 (≈ 20.8 µM) | > 128 | ≤ 0.0625 | 1 (≈ 1.3 µM) | 4 (≈ 5.2 µM) | 
7 | CCCC/C=C/C(=O)N[C@@H](Cc1cc(F)cc(F)c1)C(=O)N[C@@H]1C(=O)N2CCC[C@H]2C(=O)N2CC[C@H](C)C[C@H]2C(=O)N[C@@H](C)C(=O)N2CCC[C@H]2C(=O)O[C@H]1C ({Heptenoyl(2E)}-[Phe(3,5-F2)][aThr]P[Pip(4S-Me)]AP; ester 2-C) | ≤ 0.0625 | 0.125 (≈ 0.159 µM) | > 128 | > 128 | 0.5 (≈ 0.637 µM) | ≤ 0.0625 | 0.0156 (≈ 0.0199 µM) | 1 (≈ 1.27 µM) | > 128 | ≤ 0.0625 | 0.125 (≈ 0.159 µM) | 0.0078 (≈ 0.00994 µM) | 
8 | CCCC/C=C/C(=O)N[C@@H](Cc1c(F)c(F)c(F)c(F)c1F)C(=O)N[C@H]1COC(=O)[C@@H]2C[C@@H](C)CN2C(=O)[C@H](CC)NC(=O)[C@@H]2CCCCN2C(=O)[C@@H]2CCCN2C1=O ({Heptenoyl(2E)}-[Phe(F5)]SP[Pip][Abu][Pro(4R-Me)]; ester 2-C) | > 128 | 32 (≈ 38.1 µM) | > 128 | > 128 | > 128 | 128 (≈ 153 µM) | 16 (≈ 19.1 µM) | > 128 | > 128 | 4 (≈ 4.77 µM) | 32 (≈ 38.1 µM) | > 128 | 
9 | O=C(N[C@H](CO)[C@H](O)c1ccc([N+](=O)[O-])cc1)C(Cl)Cl [CHLORAMPHENICOL] |  | 0.5 (≈ 1.55 µM) | 2 (≈ 6.19 µM) | 8 (≈ 24.8 µM) |  |  |  |  | 3.1 (≈ 9.59 µM) |  | 64 (≈ 198 µM) |  | 1 (≈ 3.09 µM)
